The text below walks through data of PMC5216742, “Discovery and characterization of a novel potent type II native and mutant BCR-ABL inhibitor (CHMFL-074) for Chronic Myeloid Leukemia (CML)” (Oncotarget, 2016).

Test [1] concerns the target T1, ABL1 kinase (Homo sapiens, UniProt P00519).
T1 construct: A construct encoding c-ABL residues 229–500 with a His tag; made in house; host or cells: SF9 insect cells (baculovirus, pFASTHTA)
Put plainly: Invitrogen Z'LYTE biochemical kinase assay. As for the experimental part: A construct encoding c-ABL residues 229–500 with a His tag was cloned into baculovirus expression vector pFASTHTA. The protein was expressed by infecting SF9 cells with high titer viral stocks for 48 hours. Cells were harvested and lysed in 30 mM Tris pH 7.4, 150 mM NaCl, 3 mM KCl, 10% glycerol, 1 mM PMSF, 2 mM TCEP, 1 mM ADP, 20 mM Imidazole. The supernatant was loaded to Ni-NTA Column (QIAGEN, 1018244). Then the proteins were gradient washed using the same buffer with 50 mM, 100 mM imidazole, then the ABL protein was eluted with Elution buffer (20 mM Tris, 500 mM NaCl, 1% glycerol, 1 mM TCEP, 0.5 mM ADP, 300 mM Imidazole, pH 8.0). The eluted protein was loaded on desalt column PD-10(GE) to change the buffer to 20 mM Tris, 500 mM NaCl, 1% glycerol, 2 mM TCEP, pH 8.0. The protein was concentrated to 1 mg/ml and aliquots were frozen and stored at −80 °C.
The fluorescence resonance energy transfer-based Z′-LYTE kinase assay (Invitrogen, USA) was used to evaluate the IC50 value of CHMFL-074 for inhibition of ABL and KIT kinase. […] After 1 hour incubation, the reaction was developed and terminated, and the fluorescence measured with an automated plate reader (SpectraMax I3, USA). […]

In test [2] the target is T2, ABL1(H396P)-phosphorylated (Homo sapiens, UniProt P00519, H396P).
T2 construct: purchased DiscoveRx (KinomeScan service)
The test can be described thus: KinomeScan profiling. As to conditions: 1 µM CHMFL-074; read-out: % Control. The format is binding.

For test [3], the target named is T3, ABL2 (Homo sapiens, UniProt P42684).
T3 construct: purchased DiscoveRx (KinomeScan service)
The test can be described thus: KinomeScan profiling. The format is binding. As to conditions: 1 µM CHMFL-074; read-out: % Control.

Test [4] deals with K562, KU812 and MEG-01 cells. The test can be described thus: Cell cycle analysis. As to conditions: K562 (24 h), KU812 (12 h), MEG-01 (24 h). The format is cell-based. As for the experimental part:
K562, KU812 and MEG01 cells were treated with serially diluted CHMFL-074 for 12 or 24 hours. The cells were fixed in 70% cold ethanol and incubated at −20°C overnight, then stained with PI/RNase staining buffer (BD Pharmingen). Flow cytometry was performed using a FACS Calibur (BD), and results were analyzed by ModFit software.

Test [5] has as its target T4, KIT(V559D) (Homo sapiens, UniProt P10721, V559D).
T4 construct: purchased DiscoveRx (KinomeScan service)
Put plainly: KinomeScan profiling. The format is binding. Conditions: 1 µM CHMFL-074; read-out: % Control.

T3 sequence (P42684 whole entry): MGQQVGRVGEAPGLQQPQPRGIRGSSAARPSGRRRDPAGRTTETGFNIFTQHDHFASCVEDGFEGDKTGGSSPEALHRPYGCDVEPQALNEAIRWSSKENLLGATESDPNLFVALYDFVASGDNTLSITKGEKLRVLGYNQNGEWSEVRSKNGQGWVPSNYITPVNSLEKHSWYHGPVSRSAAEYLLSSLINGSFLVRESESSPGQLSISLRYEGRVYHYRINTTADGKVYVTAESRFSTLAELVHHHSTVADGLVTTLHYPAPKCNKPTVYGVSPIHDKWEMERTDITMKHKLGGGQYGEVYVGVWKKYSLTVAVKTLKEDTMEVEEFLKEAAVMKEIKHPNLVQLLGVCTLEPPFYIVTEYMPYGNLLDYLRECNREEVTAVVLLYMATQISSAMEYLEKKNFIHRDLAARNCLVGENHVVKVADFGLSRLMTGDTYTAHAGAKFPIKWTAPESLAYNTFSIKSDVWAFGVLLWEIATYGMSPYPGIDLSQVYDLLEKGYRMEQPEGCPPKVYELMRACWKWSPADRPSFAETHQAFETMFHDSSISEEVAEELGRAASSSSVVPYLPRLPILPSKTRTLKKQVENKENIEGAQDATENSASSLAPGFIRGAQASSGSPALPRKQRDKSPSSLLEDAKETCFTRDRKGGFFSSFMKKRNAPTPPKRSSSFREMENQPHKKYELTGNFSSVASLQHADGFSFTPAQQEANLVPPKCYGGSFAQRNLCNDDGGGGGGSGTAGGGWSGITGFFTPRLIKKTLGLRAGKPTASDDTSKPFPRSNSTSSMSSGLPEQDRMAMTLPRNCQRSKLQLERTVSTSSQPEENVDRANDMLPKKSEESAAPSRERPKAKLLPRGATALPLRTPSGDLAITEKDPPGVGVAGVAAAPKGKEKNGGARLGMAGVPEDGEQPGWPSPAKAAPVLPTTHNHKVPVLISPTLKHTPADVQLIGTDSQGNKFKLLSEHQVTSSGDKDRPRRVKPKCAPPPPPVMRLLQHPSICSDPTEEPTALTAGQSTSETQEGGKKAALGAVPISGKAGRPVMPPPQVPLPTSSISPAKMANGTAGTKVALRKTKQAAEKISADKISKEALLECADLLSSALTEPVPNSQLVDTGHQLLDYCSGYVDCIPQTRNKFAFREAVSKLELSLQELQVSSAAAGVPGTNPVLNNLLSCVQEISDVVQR
T4 sequence (P10721 26-976 V559D): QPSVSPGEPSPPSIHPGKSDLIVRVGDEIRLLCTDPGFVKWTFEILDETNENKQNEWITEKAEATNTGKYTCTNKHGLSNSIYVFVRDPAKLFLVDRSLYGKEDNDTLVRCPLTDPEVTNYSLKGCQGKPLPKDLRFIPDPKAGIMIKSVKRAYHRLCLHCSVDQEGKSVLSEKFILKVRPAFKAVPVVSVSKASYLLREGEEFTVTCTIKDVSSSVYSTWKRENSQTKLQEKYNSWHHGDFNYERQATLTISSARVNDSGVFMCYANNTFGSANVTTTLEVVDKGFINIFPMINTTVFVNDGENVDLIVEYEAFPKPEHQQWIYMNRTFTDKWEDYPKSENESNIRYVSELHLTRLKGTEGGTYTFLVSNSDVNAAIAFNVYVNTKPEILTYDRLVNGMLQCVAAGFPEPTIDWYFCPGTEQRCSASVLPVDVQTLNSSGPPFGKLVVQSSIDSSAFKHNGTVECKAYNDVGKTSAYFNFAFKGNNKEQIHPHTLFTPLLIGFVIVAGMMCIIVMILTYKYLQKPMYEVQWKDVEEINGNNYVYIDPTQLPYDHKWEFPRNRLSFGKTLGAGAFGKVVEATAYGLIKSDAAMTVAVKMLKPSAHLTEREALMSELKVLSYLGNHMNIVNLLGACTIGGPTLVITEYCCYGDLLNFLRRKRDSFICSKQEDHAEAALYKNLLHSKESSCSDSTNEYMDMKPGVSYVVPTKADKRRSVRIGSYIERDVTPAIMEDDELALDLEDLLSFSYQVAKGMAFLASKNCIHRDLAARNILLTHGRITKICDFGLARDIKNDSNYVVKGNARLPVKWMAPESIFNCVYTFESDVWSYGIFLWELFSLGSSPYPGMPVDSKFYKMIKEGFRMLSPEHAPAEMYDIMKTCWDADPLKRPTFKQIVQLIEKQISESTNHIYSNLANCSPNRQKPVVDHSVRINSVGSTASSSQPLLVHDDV

As to `Cc1ccc(NC(=O)c2ccc(CN3CCN(C)CC3)c(C(F)(F)F)c2)cc1OC1CCN(C(=O)c2cccnc2)CC1` [CHMFL-074], the concentration for half-maximal inhibition (IC50) in test [1] came out at 25 nM. The results for the remaining binding at 1 µM in test [2], in test [3] and in test [5] were 0.3%, 0.8% and 0.45%, respectively. For the same compound, in test [4], the “concentration inducing G0/G1 phase cell cycle arrest” value is at least 0.3 µM.

As a reminder, the IC50 is the midpoint of a concentration-inhibition curve.
